Assay results taken from patent US8288552B2, “Dihydropyridone amidesas P2X7 modulators” (Roche Palo Alto LLC, priority 2008, dated 2012).

These molecules were tested against T1, P2X7 (UniProt Q99572) (assay: P2X7 pKi of Table 1).
T1 sequence (Q99572 1-595): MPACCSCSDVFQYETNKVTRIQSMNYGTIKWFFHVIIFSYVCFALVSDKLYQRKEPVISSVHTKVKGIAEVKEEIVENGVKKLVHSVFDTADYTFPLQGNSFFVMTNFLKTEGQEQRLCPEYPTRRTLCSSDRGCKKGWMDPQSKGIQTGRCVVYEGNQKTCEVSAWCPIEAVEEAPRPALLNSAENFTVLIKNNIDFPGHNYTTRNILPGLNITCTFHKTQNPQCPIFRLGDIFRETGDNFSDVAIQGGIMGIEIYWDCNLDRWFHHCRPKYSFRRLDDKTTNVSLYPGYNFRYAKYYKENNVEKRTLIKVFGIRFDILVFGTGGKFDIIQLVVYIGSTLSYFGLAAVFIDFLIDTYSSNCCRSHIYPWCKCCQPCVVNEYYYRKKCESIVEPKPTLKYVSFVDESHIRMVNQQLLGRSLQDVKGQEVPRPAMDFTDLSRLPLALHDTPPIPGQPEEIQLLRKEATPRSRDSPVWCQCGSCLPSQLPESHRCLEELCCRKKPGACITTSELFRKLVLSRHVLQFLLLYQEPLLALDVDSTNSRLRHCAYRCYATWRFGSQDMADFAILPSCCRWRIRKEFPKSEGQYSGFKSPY
Format: cell-based
Summary of the method: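 Human P2X7 in 1321N1 cells and rat P2X7 in HEK293 cells, loaded with fluo-3 for 1 hr at 37° C, then exposed to antagonist for 20 min at room temperature. BzATP agonist was used at 100 μM final (human) or 5 μM final (rat), with fluorescence read for 5 min. The response was normalized to maximal fluorescence evoked by 5 μM ionomycin.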

pKi	Structure (SMILES)
6.365	O=C1C[C@@H](c2cccc(F)c2)C(C(=O)NCc2ccccc2Cl)=CN1 [Compound 84, (S)-4-(3-Fluoro-phenyl)-6-oxo-1,4,5,6-tetrahydro-pyridine-3-carboxylic acid 2-chloro-benzylamide]
6.705	CC(=O)COc1cc(NC(=O)C2=CNC(=O)C[C@H]2c2cccc(F)c2)c(C)cc1F [Compound 85, (S)-4-(3-Fluoro-phenyl)-6-oxo-1,4,5,6-tetrahydro-pyridine-3-carboxylic acid[4-fluoro-2-methyl-5-(2-oxo-propoxy)-phenyl]-amide]
6.63	Cc1c(F)cccc1NC(=O)C1=CNC(=O)C[C@H]1c1ccc(F)cc1 [Compound 87, (S)-4-(4-Fluoro-phenyl)-6-oxo-1,4,5,6-tetrahydro-pyridine-3-carboxylic acid(3-fluoro-2-methyl-phenyl)-amide]
7.915	Cc1c(Cl)cccc1NC(=O)C1=CNC(=O)C[C@H]1c1cccc(F)c1 [Compound 88, (S)-4-(3-Fluoro-phenyl)-6-oxo-1,4,5,6-tetrahydro-pyridine-3-carboxylic acid(3-chloro-2-methyl-phenyl)-amide]
7.443	Cc1ccc([C@@H](C)O)cc1NC(=O)C1=CNC(=O)C[C@H]1c1ccc(F)cc1 [Compound 89, (S)-4-(4-Fluoro-phenyl)-6-oxo-1,4,5,6-tetrahydro-pyridine-3-carboxylic acid[5-((R)-1-hydroxy-ethyl)-2-methyl-phenyl]-amide]
7.19	Cc1ccc([C@H](C)O)cc1NC(=O)C1=CNC(=O)C[C@H]1c1ccc(F)cc1 [Compound 90, (S)-4-(4-Fluoro-phenyl)-6-oxo-1,4,5,6-tetrahydro-pyridine-3-carboxylic acid[5-((S)-1-hydroxy-ethyl)-2-methyl-phenyl]-amide]
5.65	COc1cc(C)c(NC(=O)C2=CN(C)C(=O)C(C)C2c2ccc(F)cc2)cc1OC (stereo not drawn) [Compound 91, 4-(4-Fluoro-phenyl)-1,5-dimethyl-6-oxo-1,4,5,6-tetrahydro-pyridine-3-carboxylic acid(4,5-dimethoxy-2-methyl-phenyl)-amide]
6.995	Cc1ccc(Cl)cc1NC(=O)C1=CNC(=O)C[C@H]1c1cccc(F)c1 [Compound 92, (S)-4-(3-Fluoro-phenyl)-6-oxo-1,4,5,6-tetrahydro-pyridine-3-carboxylic acid(5-chloro-2-methyl-phenyl)-amide]
6.86	CC(=O)c1ccc(C)c(NC(=O)C2=CNC(=O)C[C@H]2c2ccc(F)cc2)c1 [Compound 93, (S)-4-(4-Fluoro-phenyl)-6-oxo-1,4,5,6-tetrahydro-pyridine-3-carboxylic acid(5-acetyl-2-methyl-phenyl)-amide]
7.83	Cc1c(Cl)cccc1NC(=O)C1=CNC(=O)C[C@H]1c1ccc(F)cc1 [Compound 94, (S)-4-(4-Fluoro-phenyl)-6-oxo-1,4,5,6-tetrahydro-pyridine-3-carboxylic acid(3-chloro-2-methyl-phenyl)-amide]
6.26	O=C1C[C@@H](c2ccc(F)cc2)C(C(=O)Nc2ccccc2C(F)(F)F)=CN1 [Compound 95, (S)-4-(4-Fluoro-phenyl)-6-oxo-1,4,5,6-tetrahydro-pyridine-3-carboxylic acid(2-trifluoromethyl-phenyl)-amide]
6.16	O=C1C[C@@H](c2ccc(F)cc2)C(C(=O)NCc2ccccc2Cl)=CN1 [Compound 97, (S)-4-(4-Fluoro-phenyl)-6-oxo-1,4,5,6-tetrahydro-pyridine-3-carboxylic acid 2-chloro-benzylamide]
6.755	Cc1ccc(OC(F)(F)F)cc1NC(=O)C1=CNC(=O)C[C@H]1c1ccc(F)cc1 [Compound 99, (S)-4-(4-Fluoro-phenyl)-6-oxo-1,4,5,6-tetrahydro-pyridine-3-carboxylic acid(2-methyl-5-trifluoromethoxy-phenyl)-amide]
6.803	Cc1c(CCO)cccc1NC(=O)C1=CNC(=O)C[C@H]1c1ccc(F)cc1 [Compound 100, (S)-4-(4-Fluoro-phenyl)-6-oxo-1,4,5,6-tetrahydro-pyridine-3-carboxylic acid[3-(2-hydroxy-ethyl)-2-methyl-phenyl]-amide]
6.415	Cc1ccccc1NC(=O)C1=CNC(=O)C[C@H]1c1ccc(F)cc1 [Compound 101, (S)-4-(4-Fluoro-phenyl)-6-oxo-1,4,5,6-tetrahydro-pyridine-3-carboxylic acid o-tolylamide]
7.316	CCc1c(NC(=O)C2=CNC(=O)CC2c2ccc(F)cc2)cccc1OC (stereo not drawn) [Compound 102, 4-(4-Fluoro-phenyl)-6-oxo-1,4,5,6-tetrahydro-pyridine-3-carboxylic acid(2-ethyl-3-methoxy-phenyl)-amide]
7.44	Cc1cccc(NC(=O)C2=CNC(=O)C[C@H]2c2ccc(F)cc2)c1Cl [Compound 103, (S)-4-(4-Fluoro-phenyl)-6-oxo-1,4,5,6-tetrahydro-pyridine-3-carboxylic acid(2-chloro-3-methyl-phenyl)-amide]
7.21	Cc1cc(Cl)c(CO)cc1NC(=O)C1=CNC(=O)C[C@H]1c1ccc(F)cc1 [Compound 104, (S)-4-(4-Fluoro-phenyl)-6-oxo-1,4,5,6-tetrahydro-pyridine-3-carboxylic acid(4-chloro-5-hydroxymethyl-2-methyl-phenyl)-amide]
6.77	Cc1cc(CCO)ccc1NC(=O)C1=CNC(=O)C[C@H]1c1ccc(F)cc1 [Compound 105, (S)-4-(4-Fluoro-phenyl)-6-oxo-1,4,5,6-tetrahydro-pyridine-3-carboxylic acid[4-(2-hydroxy-ethyl)-2-methyl-phenyl]-amide]
7.375	COc1cccc(NC(=O)C2=CNC(=O)C[C@H]2c2ccc(F)cc2)c1C [Compound 106, (S)-4-(4-Fluoro-phenyl)-6-oxo-1,4,5,6-tetrahydro-pyridine-3-carboxylic acid(3-methoxy-2-methyl-phenyl)-amide]
5.36	Cc1c(CO)cccc1NC(=O)C1=CNC(=O)C[C@@H]1c1ccc(F)cc1 [Compound 107, (R)-4-(4-Fluoro-phenyl)-6-oxo-1,4,5,6-tetrahydro-pyridine-3-carboxylic acid(3-hydroxymethyl-2-methyl-phenyl)-amide]
6.11	COc1cc(NC(=O)C2=CNC(=O)C[C@H]2c2ccc(F)cc2)ccc1F [Compound 108, (S)-4-(4-Fluoro-phenyl)-6-oxo-1,4,5,6-tetrahydro-pyridine-3-carboxylic acid(4-fluoro-3-methoxy-phenyl)-amide]
7.15	COc1cc(NC(=O)C2=CNC(=O)C[C@H]2c2ccc(F)cc2)c(Br)cc1F [Compound 109, (S)-4-(4-Fluoro-phenyl)-6-oxo-1,4,5,6-tetrahydro-pyridine-3-carboxylic acid(2-bromo-4-fluoro-5-methoxy-phenyl)-amide]
5.43	Cc1c(NC(=O)C2=CNC(=O)C[C@H]2c2ccc(F)cc2)cccc1C(=O)N(C)C [Compound 110, (S)-4-(4-Fluoro-phenyl)-6-oxo-1,4,5,6-tetrahydro-pyridine-3-carboxylic acid(3-dimethylcarbamoyl-2-methyl-phenyl)-amide]
6.5	COc1ccc(NC(=O)C2=CNC(=O)C[C@H]2c2ccc(F)cc2)c(C)c1 [Compound 111, (S)-4-(4-Fluoro-phenyl)-6-oxo-1,4,5,6-tetrahydro-pyridine-3-carboxylic acid(4-methoxy-2-methyl-phenyl)-amide]
7.52	Cc1cc(Cl)c(CCO)cc1NC(=O)C1=CNC(=O)C[C@H]1c1ccc(F)cc1 [Compound 112, (S)-4-(4-Fluoro-phenyl)-6-oxo-1,4,5,6-tetrahydro-pyridine-3-carboxylic acid[4-chloro-5-(2-hydroxy-ethyl)-2-methyl-phenyl]-amide]
8.035	COc1cc(C)c(C)c(NC(=O)C2=CNC(=O)C[C@H]2c2ccc(F)cc2)c1 [Compound 113, (S)-4-(4-Fluoro-phenyl)-6-oxo-1,4,5,6-tetrahydro-pyridine-3-carboxylic acid(5-methoxy-2,3-dimethyl-phenyl)-amide]
7.815	Cc1cc(C)c(OCCO)cc1NC(=O)C1=CNC(=O)C[C@H]1c1ccc(F)cc1 [Compound 114, (S)-4-(4-Fluoro-phenyl)-6-oxo-1,4,5,6-tetrahydro-pyridine-3-carboxylic acid [5-(2-hydroxy-ethoxy)-2,4-dimethyl-phenyl]-amide]
5.815	Cc1c(C#N)cccc1NC(=O)C1=CNC(=O)C[C@H]1c1ccc(F)cc1 [Compound 115, (S)-4-(4-Fluoro-phenyl)-6-oxo-1,4,5,6-tetrahydro-pyridine-3-carboxylic acid(3-cyano-2-methyl-phenyl)-amide]
7.21	Cc1cc(Cl)c(OCC(C)O)cc1NC(=O)C1=CNC(=O)C[C@H]1c1cccc(F)c1 (stereo partly drawn) [Compound 116, (S)-4-(3-Fluoro-phenyl)-6-oxo-1,4,5,6-tetrahydro-pyridine-3-carboxylic acid[4-chloro-5-(2-hydroxy-propoxy)-2-methyl-phenyl]-amide]
